In ChEMBL document CHEMBL3045079, “Synthesis, antimalarial and antibacterial activities of 3-amino acid- and aryl amine-substituted 2-methyl-3H-quinalzolin-4-ones” (2010):
Active and inactive are the calls of the source. The calls are words filed in the database; no cut-off is given here.

How the values were obtained:
[1] = test system: Staphylococcus aureus; assay: Antibacterial activity against Staphylococcus aureus at 100 ug after 24 hr by cup-plate method; assay type: functional, organism-based
[2] = test system: Escherichia coli; assay: Antibacterial activity against Escherichia coli at 100 ug after 24 hr by cup-plate method; assay type: functional, organism-based
[3] = test system: Plasmodium yoelii; assay: Antimalarial activity against Plasmodium yoelii N-67 infected Swiss mouse assessed as mean survival time at 200 mg/kg, ip qd administered 4 days measured 24 hr post last treatment (reference value: 8.2 +/- 0.86 days); assay type: functional; conditions: route intraperitoneal
[4] = test system: Plasmodium yoelii; assay: Antimalarial activity against Plasmodium yoelii N-67 infected Swiss mouse assessed as parasitemia at 200 mg/kg, ip qd administered 4 days measured on day 7 (reference value: 19.5 +/- 0.76 %); assay type: functional; conditions: route intraperitoneal
[5] = test system: Plasmodium yoelii; assay: Antimalarial activity against Plasmodium yoelii N-67 infected Swiss mouse assessed as parasitemia at 200 mg/kg, ip qd administered 4 days measured 24 hr post last treatment (reference value: 12.36 +/- 1.14 %); assay type: functional; conditions: route intraperitoneal

SMILES: Cc1nc2ccccc2c(=O)n1[C@@H](CCCCN)C(=O)O
- Activity [1]: inactive
- Activity [2]: inactive
- MST [3]: 6.8 days
- Activity [4]: 17.5%
- Activity [5]: 9.78%

SMILES: Cc1nc2ccccc2c(=O)n1-c1ccc(O)cc1
- Activity [1]: inactive
- Activity [2]: inactive
- MST [3]: 6.8 days
- Activity [4]: 16.8%
- Activity [5]: 10.52%

SMILES: Cc1nc2ccccc2c(=O)n1CC(=O)O
- Activity [1]: inactive
- Activity [2]: inactive
- MST [3]: 6.6 days
- Activity [4]: 17.2%
- Activity [5]: 10.5%

SMILES: Cc1nc2ccccc2c(=O)n1[C@@H](CCC(=O)O)C(=O)O
- Activity [1]: inactive
- Activity [2]: inactive
- MST [3]: 7.8 days
- Activity [4]: 18.45%
- Activity [5]: 9.6%

SMILES: Cc1nc2ccccc2c(=O)n1[C@@H](CS)C(=O)O
- Activity [1]: inactive
- Activity [2]: inactive
- MST [3]: 7.4 days
- Activity [4]: 25%
- Activity [5]: 11.9%

SMILES: Cc1nc2ccccc2c(=O)n1-c1ccc([N+](=O)[O-])cc1
- Activity [1]: inactive
- Activity [2]: inactive
- MST [3]: 7 days
- Activity [4]: 25.5%
- Activity [5]: 10.43%
